Among the test systems are UACC-62 melanoma; SN12C renal; SF-295 CNS; CCRF-CEM leukemia; NCI-H460 lung; EKVX NSCLC.
What all share (test): NCI-60 cell line screen, 48 h

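Step 1: Grow cells in 96-well plates. Step 2: Expose to compound for 48 hours at 5 concentrations. Step 3: Interpolate endpoints linearly; if unreached, use highest concentration. At the GI50, growth is halved. TGI: total growth inhibition.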

On to `O=[N+]([O-])c1ccc(N/N=C\c2cc(Cl)ccc2O)nc1`, for which the GI50 with UACC-62 melanoma is 3.18 µM; in the assay on SN12C renal, 2.99 µM; in the assay with SF-295 CNS it was 2.15 µM; in the assay with CCRF-CEM leukemia it was 0.386 µM; with NCI-H460 lung it was 1.66 µM; in the assay on EKVX NSCLC, 8.05 µM. The TGI in the assay with UACC-62 melanoma was 34.1 µM; with SN12C renal, above 100 µM; with SF-295 CNS, 11.7 µM; in the assay on CCRF-CEM leukemia, above 100 µM; with NCI-H460 lung it was 13.6 µM; in the assay on EKVX NSCLC, above 100 µM.
Regarding `COc1cc(O)c(C(=O)/C=C/c2ccccc2)c(OC)c1`, the TGI in the assay on UACC-62 melanoma was 17.3 µM; in the assay with SN12C renal it was 11.6 µM; in the assay on SF-295 CNS, 26.9 µM; with CCRF-CEM leukemia, 7.22 µM; in the assay on NCI-H460 lung, 13.3 µM; with EKVX NSCLC, 22.4 µM.
As for `COC(=O)[C@]12CC[C@@H](C)[C@H](C)[C@@H]1C1=CC[C@@H]3[C@@]4(C)CC(=O)[C@H](O)[C@@]5(C)COC(=C45)C[C@@]3(C)[C@]1(C)CC2`, the GI50 in the assay on UACC-62 melanoma is 15.7 µM; in the assay on SN12C renal, 19 µM; with SF-295 CNS, 17.9 µM; with CCRF-CEM leukemia, 19.7 µM; in the assay on NCI-H460 lung, 18.8 µM; in the assay with EKVX NSCLC, 17.4 µM. Further, the TGI amounted to 31.6 µM in the assay on UACC-62 melanoma; 39.2 µM with SN12C renal; 33.7 µM with SF-295 CNS; 43.5 µM in the assay on CCRF-CEM leukemia; 37.5 µM with NCI-H460 lung; 34.2 µM with EKVX NSCLC.
As to `O=C(c1cccs1)c1c(C(F)(F)F)n([O-])c2ccc(C(F)(F)F)cc2[n+]1=O`, the GI50 in the assay on UACC-62 melanoma was 0.34 µM; in the assay on SN12C renal it was 0.195 µM; with SF-295 CNS, 0.464 µM; with CCRF-CEM leukemia, 0.224 µM; in the assay with NCI-H460 lung, 0.205 µM; with EKVX NSCLC, 0.241 µM. Also, the TGI came out at 1.08 µM with UACC-62 melanoma; 0.468 µM in the assay with SN12C renal; 1 µM in the assay on SF-295 CNS; 2.11 µM with CCRF-CEM leukemia; 0.407 µM in the assay on NCI-H460 lung; 0.529 µM in the assay on EKVX NSCLC.
On to `CCCCCCCCCCCCCCCCCCNC(=O)[C@H]1CSC(c2ccc(OC)c(F)c2)N1` (some centres not stated), for which the GI50 in the assay on UACC-62 melanoma is 1.72 µM; with SN12C renal, 1.52 µM; in the assay on SF-295 CNS it was 26 µM; in the assay on CCRF-CEM leukemia it was 0.731 µM; with NCI-H460 lung, 0.606 µM; in the assay on EKVX NSCLC, 3.93 µM. For the same compound, the TGI in the assay on UACC-62 melanoma was 3.82 µM; in the assay on SN12C renal, 3.39 µM; with SF-295 CNS, above 52.2 µM; in the assay on CCRF-CEM leukemia, 8.13 µM; in the assay on NCI-H460 lung, 2.02 µM; in the assay with EKVX NSCLC it was 17.2 µM.
`COc1ccccc1C(=O)/C=C/c1cc2cccc(OC)c2[nH]c1=O`: the GI50 with UACC-62 melanoma was 0.0412 µM; in the assay with SN12C renal it was 0.079 µM; in the assay on SF-295 CNS, 0.0256 µM; in the assay with CCRF-CEM leukemia, below 0.0182 µM; with NCI-H460 lung it was 0.0243 µM; in the assay with EKVX NSCLC it was 0.375 µM. Moreover, the TGI in the assay on UACC-62 melanoma is 1.93 µM; in the assay with SN12C renal it was 2.64 µM; in the assay with SF-295 CNS, 3.85 µM; in the assay with CCRF-CEM leukemia, above 37.9 µM; in the assay on NCI-H460 lung, 0.524 µM; with EKVX NSCLC it was 3.17 µM.
Regarding `O=C1c2ccccc2-c2c1c1ccccc1c(=O)n2CCO`, the TGI in the assay with UACC-62 melanoma was above 59.5 µM; in the assay with SN12C renal, above 100 µM; with SF-295 CNS, above 96.3 µM; in the assay with CCRF-CEM leukemia, above 100 µM; with NCI-H460 lung, 11.3 µM; in the assay on EKVX NSCLC it was above 100 µM.
`O=C1C=C[C@]2(C[C@@H](c3cccc(C(F)(F)F)c3)O[C@@H](c3cccc(C(F)(F)F)c3)O2)O1`: the GI50 is 1.77 µM with UACC-62 melanoma; 2.91 µM with SN12C renal; 4.18 µM with SF-295 CNS; 2.48 µM with CCRF-CEM leukemia; 0.6 µM in the assay on NCI-H460 lung; 12.9 µM with EKVX NSCLC. For the same compound, the TGI with UACC-62 melanoma amounted to 4.63 µM; in the assay with SN12C renal, 12.4 µM; with SF-295 CNS it was 17.2 µM; with CCRF-CEM leukemia, 13.1 µM; in the assay with NCI-H460 lung it was 2.58 µM; with EKVX NSCLC it was 27.7 µM.
For `CCCCCCCCCCCCc1ccc(C(=O)/C=C/C(=O)O)cc1`, the GI50 in the assay on UACC-62 melanoma was 1.71 µM; with SN12C renal, 1.83 µM; in the assay on SF-295 CNS, 12.5 µM; in the assay with CCRF-CEM leukemia it was 0.547 µM; in the assay on NCI-H460 lung it was 10.8 µM; in the assay with EKVX NSCLC, 4.09 µM. For the same compound, the TGI in the assay with UACC-62 melanoma amounted to 3.66 µM; in the assay with SN12C renal, 4.14 µM; in the assay on SF-295 CNS, 25.5 µM; in the assay with CCRF-CEM leukemia, 5.29 µM; in the assay on NCI-H460 lung, 27.1 µM; in the assay on EKVX NSCLC, 17.1 µM.
In the case of `COc1ccc(-c2cc(-c3ccc(Nc4nc(Nc5ccc(Cl)cc5)nc(Nc5ccc(Cl)cc5)n4)cc3)nc(N)c2C#N)cc1`, the GI50 in the assay on UACC-62 melanoma is 2.64 µM; with SN12C renal it was 2.58 µM; in the assay on SF-295 CNS, 1.68 µM; in the assay on CCRF-CEM leukemia it was 0.929 µM; in the assay with NCI-H460 lung, 4.2 µM; in the assay with EKVX NSCLC it was 8.16 µM. Further, the TGI is 10.6 µM with UACC-62 melanoma; above 100 µM in the assay on SN12C renal; 13.4 µM in the assay with SF-295 CNS; above 27.6 µM in the assay on CCRF-CEM leukemia; above 54.2 µM in the assay with NCI-H460 lung; above 21.9 µM in the assay on EKVX NSCLC.
Consider `COC(=O)Nc1nc2ccc(C(=O)c3ccc[nH]3)cc2[nH]1`, for which the TGI with UACC-62 melanoma was above 100 µM; in the assay with SN12C renal, above 100 µM; in the assay on SF-295 CNS, above 100 µM; in the assay with CCRF-CEM leukemia, 12.7 µM; in the assay with NCI-H460 lung, above 100 µM; with EKVX NSCLC, above 100 µM.
Consider `COC(=O)c1cnc(=O)n(C2CC(O)C(CO)O2)c1` (configuration not stated), for which the GI50 in the assay on UACC-62 melanoma, with SN12C renal, in the assay with SF-295 CNS, in the assay with NCI-H460 lung and with EKVX NSCLC was above 100 µM throughout. The TGI with UACC-62 melanoma, in the assay on SN12C renal, in the assay with SF-295 CNS, in the assay on CCRF-CEM leukemia, in the assay on NCI-H460 lung and with EKVX NSCLC was above 100 µM in each case.
Regarding `COc1cc(-c2cc(C(=O)N3CCN(C(=O)c4ccccc4NCc4ccco4)CC3)nc3cc(-c4ccccc4)nn23)cc(OC)c1OC`, the GI50 in the assay with UACC-62 melanoma was 4.71 µM; in the assay on SN12C renal, 6.7 µM; in the assay on SF-295 CNS, 1.59 µM; with CCRF-CEM leukemia, 4.57 µM; in the assay on NCI-H460 lung, 2.55 µM; in the assay on EKVX NSCLC, 5.5 µM. Further, the TGI with UACC-62 melanoma is above 100 µM; in the assay with SN12C renal, above 100 µM; in the assay on SF-295 CNS, above 93.1 µM; with CCRF-CEM leukemia, above 100 µM; in the assay on NCI-H460 lung, above 100 µM; in the assay with EKVX NSCLC, above 100 µM.

Source of the values: PubChem BioAssay (NCI).
